# According to patent US9896697B2, “Defensin-encoding nucleic acid molecules derived from Nicotiana alata, uses therefor and transgenic plants comprising same” (HEXIMA LIMITED, priority 2001, dated 2018):
# Columns and labels:
# H. armigera larvae = test: Insect feeding trial with artificial cotton leaf diet; assay type: in vivo; conditions: 0.3% (w/v) test protein in artificial diet; casein control; FIG. 16
# Excerpt: Table 2 Artificial diet ingredients used in the feeding trial of H. armigera [table] Helicoverpa punctigera larvae came from a colony collected in Victoria, Australia and maintained in culture at La Trobe University, Melbourne and H. armigera were obtained from a colonies maintained at La Trobe University, Melbourne or the Australian Cotton Research Institute, at the Entomology Department of the Commonwealth Scientific and Industrial Research Organisation in Narrabri, NSW. To confirm that the insecticidal activity was due to the defensin and not to upregulation of other endogenous defense molecules, a feeding trial using artificial cotton leaf diet containing purified defensin from floral buds was performed. The 6 kDa cysteine rich proteinase inhibitors (NaPI) from N. alata (Atkinson et al., Plant Cell 5: 203-213, 1993) were used as positive control and casein was used as a negative control. Feeding trials were conducted as described in Heath et al. (J. Insect Physiology 43: 833-842, 1997 except that the artificial diet was based on cotton leaves (Table 2). Thirty milligram of defensin was purified from floral buds of N. alata and used in artificial diets at two concentrations. H. armigera larvae fed on defensin at 0.3% (w/v) were 40% smaller than controls (FIG. 16) while larvae fed on NaPI at the same concentration were about 60% smaller than controls.
# [1] = system: Fusarium oxysporum (f. sp. vasinfectum, isolate VCG 01111); test: Fungal growth inhibition assay, 96-well microtitre plate, absorbance at 595 nm; assay type: cell-based; conditions: 20 μg/mL purified protein; FIGS. 12B and 12C
# Excerpt: (§1) The 96-well microtitre plate assay of Broekaert et al. (EMS Microbiology Letters 69:55-60, 1990) was used to test the effect of the purified NaPdf1 protein on the growth of Botrytis cinerea (isolated from rosemary, Brunswick, Victoria), Fusarium oxysporum (f. sp. dianthi, Race 2; isolated from carnation by Florigene Limited, Collingwood, Victoria) and Fusarium oxysporum (f. sp. vasinfectum, isolate VCG 01111 from cotton; provided by the Department of Primary Industries, Queensland). Fungal spores were isolated from sporulating cultures growing on half strength potato dextrose agar (PDA, Difco) or gamma-irradiated carnation leaves in water agar by the addition of sterile water and the use of a spreader. The suspension was filtered through two layers of autoclaved muslin and the spore concentration in the filtrate determined using a haemocytometer. The spores were used directly or after storage in sterile 20% v/v glycerol solution at −20° C.
# (§2) Antifungal assays were performed in 96-well flat-bottomed microtitre plates (Greiner) under aseptic conditions. The spore concentration was adjusted to about 2×10^4 spores/mL in PDB and 80 μL of this suspension was added to each well to which 20 μL of filter sterilised (0.22 μm syringe filter, Millipore) test protein (10, 50 or 100 μg/mL) or water was added. The purity and concentration of each protein was confirmed before use by RP-HPLC analysis. Sterile water and ovalbumin (Sigma) were added to other wells as negative controls, and a mixture of the antifungal proteins α- and β-purothionin (Sigma) was used as a positive control. The plates were shaken on an orbital shaker for a few seconds to mix the spores and the test proteins. The plates were allowed to stand for 30 min to allow the spores to sediment before the optical density of the plates were determined using a Spectra Max Pro 250 microplate reader (Molecular Devices) at 595 nm absorbance. […] An increase in absorbance relative to the initial reading was correlated with the growth of fungal hyphae and this was plotted against time. […]
# Botrytis cinerea = test: as above; assay type: cell-based; conditions: 20 μg/mL purified protein; FIG. 11
# Excerpt: as §1, §2
# [2] = system: Fusarium oxysporum (f. sp. dianthi, Race 2); test: as above; assay type: cell-based; conditions: 20 μg/mL purified protein; FIG. 12A
# Excerpt: as §1, §2
substance,measurement,setting,value
"NaPdf1: Mature floral defensin (47 amino acids, ~5.3 kDa) from Nicotiana alata, purified from floral buds (RECKTESNTFPGICITKPPCRKACISEKFTDGHCSKILRRCLCTKPC; listed as Nicotiana alata)",larvae smaller than controls (mean weight),H. armigera larvae,40%
same,growth inhibition of F. oxysporum f. sp. vasinfectum,[1],effectiveness
same,growth inhibition of B. cinerea,Botrytis cinerea,effectiveness
same,growth inhibition of F. oxysporum f. sp. dianthi,[2],effectiveness
